Reference: patent US8772499B2, “TRPV3 modulators” (AbbVie Inc., priority 2011, dated 2014)
Like-named read-outs stand apart in the source and are kept apart here.

What was measured:
human TRPV3 = target: T1, human TRPV3 (Homo sapiens, UniProt Q8NET8); assay: In vitro antagonism of recombinant human TRPV3 activation (FLIPR Tetra calcium assay); assay type: cell-based; conditions: HEK293 cells stably expressing human TRPV3, agonist 2-APB at 80 μM
T1 construct: expressed in transfected cells
T1 sequence (Q8NET8 1-790): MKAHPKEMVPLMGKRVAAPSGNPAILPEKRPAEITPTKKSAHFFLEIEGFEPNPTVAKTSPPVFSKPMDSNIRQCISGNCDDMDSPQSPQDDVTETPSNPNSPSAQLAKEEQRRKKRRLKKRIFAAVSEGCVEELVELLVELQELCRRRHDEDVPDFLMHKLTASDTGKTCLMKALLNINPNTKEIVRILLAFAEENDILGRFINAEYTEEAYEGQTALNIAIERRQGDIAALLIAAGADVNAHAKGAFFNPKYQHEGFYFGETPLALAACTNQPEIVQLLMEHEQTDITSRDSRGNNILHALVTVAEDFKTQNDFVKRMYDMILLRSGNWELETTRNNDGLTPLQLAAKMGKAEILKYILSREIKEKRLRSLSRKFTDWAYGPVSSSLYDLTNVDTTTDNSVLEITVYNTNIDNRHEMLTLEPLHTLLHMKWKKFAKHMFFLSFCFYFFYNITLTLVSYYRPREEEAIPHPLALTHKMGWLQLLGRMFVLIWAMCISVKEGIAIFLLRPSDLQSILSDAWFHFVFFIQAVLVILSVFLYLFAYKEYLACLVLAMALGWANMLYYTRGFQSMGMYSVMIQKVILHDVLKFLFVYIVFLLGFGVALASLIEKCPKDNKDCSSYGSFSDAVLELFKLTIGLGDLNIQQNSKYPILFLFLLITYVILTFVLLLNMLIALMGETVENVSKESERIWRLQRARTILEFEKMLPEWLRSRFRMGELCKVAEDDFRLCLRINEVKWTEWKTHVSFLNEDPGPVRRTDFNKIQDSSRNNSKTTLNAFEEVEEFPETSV
In short: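 HEK293 cells stably expressing human TRPV3, loaded with Calcium-4 dye for 90–120 min, received compound in DPBS, then 80 μM 2-APB (EC80) 3 min later. Max-minus-min fluorescence expressed as % of 2-APB response without antagonist; IC50 values mostly averages of n≥2 runs.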

[1] = In vitro human microsomal stability assay; assay type: in vitro ADME; conditions: human, microsomes, 0.5 h, 0.5 μM, pH 7.4
Experimental: (§1) Test compounds were evaluated for metabolic stability in an in vitro rat microsomal stability assay using rat liver microsomes (Sprague-Dawley, from BD Biosciences) and/or an in vitro human microsomal stability assay using human liver microsomes (Xenotech). […] Incubations were carried out at 37° C. with a final incubation volume of 135 μL. […] A 1.5 μL aliquot of reduced nicotine adenine disphosphonucleotide (NADPH) (Chem-Impex Int'L Inc., Lot 12532024) was also added to the time-zero plates.

[2] = In vitro rat microsomal stability assay; assay type: in vitro ADME, rat (Sprague-Dawley); conditions: Sprague-Dawley, rat, microsomes, 0.5 h, 0.5 μM, pH 7.4
Experimental: as §1

[3] = actual measured value shown parenthetically, in most cases average of at least two runs, read-out: IC50
[4] = reported range, read-out: IC50 (range class)

| SMILES | IC50 (human TRPV3; [3]) | HUMAN MICROSOMAL STABILITY (% REMAINING AFTER 30 MINUTES) [1] | RAT MICROSOMAL STABILITY (% REMAINING AFTER 30 MINUTES) [2] | IC50 (human TRPV3; [4]) |
| --- | --- | --- | --- | --- |
| OC(C1CCCc2cccnc21)C1(c2ccc(F)c(F)c2)CCC1 (single isomer, unassigned) [Example 169, (anti)-[1-(3,4-difluorophenyl)cyclobutyl][5,6,7,8-tetrahydroquinolin-8-yl]-methanol] | 5.82 µM | <0.01% | <0.01% |  |
| OC(C1CCCc2cccnc21)C1(c2ccc(F)c(F)c2)CCC1 (single isomer, unassigned) [Example 170, (syn)-[1-(3,4-difluorophenyl)cyclobutyl][5,6,7,8-tetrahydroquinolin-8-yl]-methanol] | > 20 µM | <0.01% | <0.01% | > 20 µM |
| OC(C1CCCc2cccnc21)C1(c2ccc(OC(F)(F)F)cc2)CCC1 (single isomer, unassigned) [Example 177, (anti)-5,6,7,8-tetrahydroquinolin-8-yl{1-[4-(trifluoromethoxy)phenyl]-cyclobutyl}methanol] | 3.38 µM | 0.12% | <0.01% |  |
| OC(C1CCCc2cccnc21)C1(c2ccc(OC(F)(F)F)cc2)CCC1 (single isomer, unassigned) [Example 178, (syn)-5,6,7,8-tetrahydroquinolin-8-yl{1-[4-(trifluoromethoxy)phenyl]-cyclobutyl}methanol] | > 20 µM | 9.2% | <0.01% | > 20 µM |
| OC(C1CCCc2cccnc21)C1(c2cccc(C(F)(F)F)c2)CCC1 (single isomer, unassigned) [Example 179, (anti)-5,6,7,8-tetrahydroquinolin-8-yl{1-[3-(trifluoromethyl)phenyl]-cyclobutyl}methanol] | 2.95 µM | <0.01% | <0.01% |  |
| OC(C1CCCc2cccnc21)C1(c2cccc(C(F)(F)F)c2)CCC1 (single isomer, unassigned) [Example 180, (syn)-5,6,7,8-tetrahydroquinolin-8-yl{1-[3-(trifluoromethyl)phenyl]-cyclobutyl}methanol] | > 20 µM | <0.01% | <0.01% | > 20 µM |
| OC(C1CCCc2cccnc21)C1(c2ccc(Cl)c(Cl)c2)CCC1 (single isomer, unassigned) [Example 181, (anti)-[1-(3,4-dichlorophenyl)cyclobutyl][5,6,7,8-tetrahydroquinolin-8-yl]-methanol] | 1.98 µM | <0.01% | <0.01% |  |
| OC(C1CCCc2cccnc21)C1(c2ccc(Cl)c(Cl)c2)CCC1 (single isomer, unassigned) [Example 182, (syn)-[1-(3,4-dichlorophenyl)cyclobutyl][5,6,7,8-tetrahydroquinolin-8-yl]-methanol] | > 20 µM | <0.01% | <0.01% | > 20 µM |
| OC(C1CCCc2cccnc21)C1(c2ccc(C(F)(F)F)cc2)CCC1 (single isomer, unassigned) [Example 183, (anti)-5,6,7,8-tetrahydroquinolin-8-yl{1-[4-(trifluoromethyl)phenyl]-cyclobutyl}methanol] | 1.4 µM | <0.01% | <0.01% |  |
| OC(C1CCCc2cccnc21)C1(c2ccc(C(F)(F)F)cc2)CCC1 (single isomer, unassigned) [Example 184, (syn)-5,6,7,8-tetrahydroquinolin-8-yl{1-[4-(trifluoromethyl)phenyl]-cyclobutyl}methanol] | > 20 µM | 0.46% | <0.01% | > 20 µM |
| CC1(O)CC(c2ccc(OC(F)(F)F)cc2)(C(O)c2ccccn2)C1 (single isomer, unassigned) [Example 203] | 13.8 µM | >85% | 74% |  |
| CC1(O)CC(c2cccc(C(F)(F)F)c2)(C(O)c2ccccn2)C1 (single isomer, unassigned) [Example 244] | 3.6 µM | 80% | 77% |  |
| OC1CC(c2ccc(Cl)c(Cl)c2)(C(O)c2ccccn2)C1 (single isomer, unassigned) [Example 247] | 4.31 µM | 62% | >85% |  |
| OC1CC(c2cccc(OC(F)(F)F)c2)(C(O)c2ccccn2)C1 (single isomer, unassigned) [Example 272] | 0.19 µM | 54% | 48% |  |
| OC1CC(c2cccc(OC(F)(F)F)c2)(C(O)c2ccccn2)C1 (single isomer, unassigned) [Example 273] | 0.09 µM | 42% | 65% |  |
| CC1(O)CC(c2ccnc(C(F)(F)F)c2)(C(O)c2ccccn2)C1 (single isomer, unassigned) [Example 307] | 8.23 µM | 73% | >85% |  |
| CC1(O)CC(c2cncc(C(F)(F)F)c2)(C(O)c2ccccn2)C1 (single isomer, unassigned) [Example 308] | 1 µM | 41% | 13% |  |
| OC1CC(c2ccc(Cl)c(Cl)c2)(C(O)c2ncccn2)C1 (single isomer, unassigned) [Example 312] | 1.96 µM | >85% | >85% |  |

Further lines, results first:

| IC50 (human TRPV3; [3]) | HUMAN MICROSOMAL STABILITY (% REMAINING AFTER 30 MINUTES) [1] | RAT MICROSOMAL STABILITY (% REMAINING AFTER 30 MINUTES) [2] | IC50 (human TRPV3; [4]) | SMILES |
| --- | --- | --- | --- | --- |
| 2.61 µM | 71% | 81% |  | O=C1CC(c2ccc(C(F)(F)F)cc2)([C@H](O)c2ccccn2)C1 (single isomer, unassigned) [Example 164] |
| 16.6 µM | 83% | 77% |  | O=C1CC(c2ccc(C(F)(F)F)cc2)([C@@H](O)c2ccccn2)C1 (single isomer, unassigned) [Example 165] |
| 10.8 µM | >85% | 67% |  | CC1(O)CC(c2ccc(C(F)(F)F)cc2)(C(O)c2ccccn2)C1 (single isomer, unassigned) [Example 233] |
| 1.67 µM | 66% | 59% |  | O=C1CC(c2cccc(C(F)(F)F)c2)([C@H](O)c2ccccn2)C1 (single isomer, unassigned) [Example 241] |
| 18.5 µM | 64% | 55% |  | O=C1CC(c2cccc(C(F)(F)F)c2)([C@@H](O)c2ccccn2)C1 (single isomer, unassigned) [Example 243] |
| 2.24 µM | 44% | 55% |  | O=C1CC(c2cccc(OC(F)(F)F)c2)([C@H](O)c2ccccn2)C1 (single isomer, unassigned) [Example 256] |
| 9.51 µM | 42% | 57% |  | O=C1CC(c2cccc(OC(F)(F)F)c2)([C@@H](O)c2ccccn2)C1 (single isomer, unassigned) [Example 257] |
| 2.13 µM | 66% | 82% |  | O=C1CC(c2ccc(F)c(Cl)c2)([C@H](O)c2ccccn2)C1 (single isomer, unassigned) [Example 268] |
